Results taken from ChEMBL document CHEMBL3596146, “Design, synthesis, and biological evaluation of a series of alkoxy-3-indolylacetic acids as peroxisome proliferator-activated receptor γ/δ agonists” (Bioorg Med Chem, 2015).
The source made the active and inactive calls. The calls are words filed in the database; no cut-off is given here.

What was measured:
[1] = target: T1, Peroxisome proliferator-activated receptor alpha (Homo sapiens) (UniProt Q07869); experiment: Agonist activity at PPAR-alpha (unknown origin) expressed in CV-1 cells co-transfected with tk-PPRE-luciferase vector at 10 uM after 24 hrs by transactivation assay relative to GW7647; assay type: cell-based
T1 sequence (whole entry): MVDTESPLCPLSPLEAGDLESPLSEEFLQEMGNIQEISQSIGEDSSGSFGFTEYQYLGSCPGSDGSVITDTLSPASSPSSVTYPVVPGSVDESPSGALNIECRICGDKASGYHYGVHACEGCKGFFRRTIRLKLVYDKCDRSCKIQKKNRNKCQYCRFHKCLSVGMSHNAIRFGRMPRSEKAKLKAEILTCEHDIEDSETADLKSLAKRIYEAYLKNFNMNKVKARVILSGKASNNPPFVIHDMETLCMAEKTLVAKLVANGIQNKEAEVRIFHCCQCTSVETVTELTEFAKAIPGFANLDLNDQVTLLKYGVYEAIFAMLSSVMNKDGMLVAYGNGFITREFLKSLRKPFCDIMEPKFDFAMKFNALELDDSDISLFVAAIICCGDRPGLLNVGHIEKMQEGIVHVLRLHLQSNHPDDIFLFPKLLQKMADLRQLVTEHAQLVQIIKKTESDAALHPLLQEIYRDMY

[2] = target: T2, Peroxisome proliferator-activated receptor gamma (Homo sapiens) (UniProt P37231); experiment: Agonist activity at PPAR-gamma (unknown origin) expressed in CV-1 cells co-transfected with tk-PPRE-luciferase vector at 10 uM after 24 hrs by transactivation assay relative to rosiglitazone; assay type: cell-based
T2 sequence (whole entry): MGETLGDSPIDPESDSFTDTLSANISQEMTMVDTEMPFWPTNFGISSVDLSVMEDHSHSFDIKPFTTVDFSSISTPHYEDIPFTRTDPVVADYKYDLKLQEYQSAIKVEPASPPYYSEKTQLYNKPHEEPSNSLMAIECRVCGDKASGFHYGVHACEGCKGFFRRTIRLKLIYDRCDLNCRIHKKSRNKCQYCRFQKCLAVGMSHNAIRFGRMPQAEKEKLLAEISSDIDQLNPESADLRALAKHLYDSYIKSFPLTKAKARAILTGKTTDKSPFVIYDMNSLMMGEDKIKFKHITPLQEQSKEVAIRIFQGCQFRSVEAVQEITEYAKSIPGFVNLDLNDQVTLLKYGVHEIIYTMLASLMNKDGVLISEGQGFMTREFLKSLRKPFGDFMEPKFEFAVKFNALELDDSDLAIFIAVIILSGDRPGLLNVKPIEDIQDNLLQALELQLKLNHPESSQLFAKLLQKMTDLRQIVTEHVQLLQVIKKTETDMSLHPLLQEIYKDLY

[3] = target: T3, Peroxisome proliferator-activated receptor delta (Homo sapiens) (UniProt Q03181); experiment: Agonist activity at PPAR-delta (unknown origin) expressed in HEK293t cells co-transfected with tk-PPRE-luciferase vector at 10 uM after 24 hrs by transactivation assay relative to GW0742; assay type: cell-based; settings: HEK-293T
T3 sequence (whole entry): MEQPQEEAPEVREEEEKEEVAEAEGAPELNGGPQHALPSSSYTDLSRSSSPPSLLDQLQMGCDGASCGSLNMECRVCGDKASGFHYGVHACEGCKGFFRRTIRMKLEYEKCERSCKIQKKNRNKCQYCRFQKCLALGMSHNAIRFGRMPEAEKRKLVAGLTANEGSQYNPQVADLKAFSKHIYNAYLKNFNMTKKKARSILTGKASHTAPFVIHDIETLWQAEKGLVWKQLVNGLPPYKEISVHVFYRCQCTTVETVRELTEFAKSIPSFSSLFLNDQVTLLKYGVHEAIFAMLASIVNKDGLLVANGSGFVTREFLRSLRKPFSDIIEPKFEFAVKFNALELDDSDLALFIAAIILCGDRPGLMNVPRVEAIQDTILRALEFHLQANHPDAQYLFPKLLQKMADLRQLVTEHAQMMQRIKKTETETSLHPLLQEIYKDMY

[4] = target: T4, Peroxisome proliferator-activated receptor alpha (Homo sapiens, UniProt Q07869); experiment: Agonist activity at PPAR-alpha (unknown origin) expressed in CV-1 cells co-transfected with tk-PPRE-luciferase vector after 24 hrs by transactivation assay; assay type: cell-based
T4 sequence (Q07869 whole entry): T1 sequence (whole entry)

[5] = target: T5, Peroxisome proliferator-activated receptor gamma (Homo sapiens, UniProt P37231); experiment: Agonist activity at PPAR-gamma (unknown origin) expressed in CV-1 cells co-transfected with tk-PPRE-luciferase vector after 24 hrs by transactivation assay; assay type: cell-based
T5 sequence (P37231 whole entry): T2 sequence (whole entry)

[6] = target: T6, Peroxisome proliferator-activated receptor delta (Homo sapiens, UniProt Q03181); experiment: Agonist activity at PPAR-delta (unknown origin) expressed in HEK293t cells co-transfected with tk-PPRE-luciferase vector after 24 hrs by transactivation assay; assay type: cell-based, HEK-293T
T6 sequence (Q03181 whole entry): T3 sequence (whole entry)

Liver microsome [7] = experiment: Metabolic stability in human liver microsomes at 1 uM after 30 mins measured under phase 1 reaction by LC/MS/MS analysis; assay type: ADME; settings: 0.5 h
[8] = Metabolic stability in mouse liver microsomes at 1 uM after 30 mins measured under phase 1 reaction by LC/MS/MS analysis; assay type: ADME; settings: 0.5 h
[9] = Retention time of the compound by HPLC analysis; assay type: physicochemical
Liver microsome [10] = experiment: Metabolic stability in human liver microsomes at 1 uM after 30 mins measured under phase 2 reaction by LC/MS/MS analysis; assay type: ADME; settings: 0.5 h
[11] = Metabolic stability in mouse liver microsomes at 1 uM after 30 mins measured under phase 2 reaction by LC/MS/MS analysis; assay type: ADME; settings: 0.5 h

Row | Compound | Emax [1] [%] | Emax [2] [%] | Emax [3] | EC50 [4] [µM] | EC50 [5] [nM] | EC50 [6] [µM] | Stability (Liver microsome [7]) | Stability [8] | Retention_time [9] [min] | Stability (Liver microsome [10]) | Stability [11]
1 | COc1ccc(COc2cccc(OCCOc3ccc4c(c3)c(CC(=O)O)cn4Cc3ccccc3)c2)cc1 | 25.8 | 90.9 | 122% | 5.9 | 1900 | 6.3 | Unstable | Stable | 10.127 |  | 
2 | Cc1ccc(COc2cccc(OCCCOc3ccc4[nH]cc(CC(=O)O)c4c3)c2)cc1 | 69.3 | 134 | 84.1% | 13.8 | 1700 | 7.2 | Stable | Stable | 8.984 |  | 
3 | Cc1ccc(COc2ccc(OCCCOc3ccc4c(c3)c(CC(=O)O)cn4Cc3ccccc3)cc2)cc1 | 18.9 | 92.6 | 93.6% |  |  |  |  |  | 21.33 |  | 
4 | O=C(O)Cc1cn(Cc2ccccc2)c2ccc(OCCCOc3cccc(Oc4ccc(Cl)cc4)c3)cc12 | 34 | 99.8 | 88.8% |  |  |  |  |  | 25.456 |  | 
5 | O=C(O)Cc1c[nH]c2ccc(OCCCOc3cccc(Oc4ccccc4)c3)cc12 | 45.4 | 92.5 | 23.8% |  |  |  |  |  | 7.305 |  | 
6 | O=C(O)Cc1cn(Cc2ccccc2)c2ccc(OCCCOc3cccc(Oc4ccccc4)c3)cc12 | 13.9 | 71.2 | 46.3% |  |  |  |  |  | 18.216 |  | 
7 | O=C(O)Cc1c[nH]c2ccc(OCCCOc3ccccc3OCc3ccc(Cl)cc3)cc12 | 21 | 16.1 | inactive |  |  |  |  |  | 7.547 |  | 
8 | O=C(O)Cc1cn(Cc2ccccc2)c2ccc(OCCCOc3cccc(Oc4ccc(C(F)(F)F)cc4)c3)cc12 | 25.9 | 85.2 | 53.2% |  |  |  |  |  | 25.922 |  | 
9 | Cc1ccc(COc2cccc(OCCCOc3ccc4c(c3)c(CC(=O)O)cn4Cc3ccccc3)c2)cc1 | 31.4 | 109 | 83% |  |  |  |  |  | 21.719 |  | 
10 | COc1ccc(Oc2cccc(OCCCOc3ccc4c(c3)c(CC(=O)O)cn4Cc3ccccc3)c2)cc1 | 22.3 | 71.1 | 59.5% |  |  |  |  |  | 7.257 |  | 
11 | O=C(O)Cc1c[nH]c2ccc(OCCCOc3cccc(Oc4ccc(Cl)cc4)c3)cc12 | 59.2 | 106 | 37.9% |  |  |  |  |  | 9.322 |  | 
12 | O=C(O)Cc1cn(Cc2ccccc2)c2ccc(OCCCOc3cccc(OCc4ccc(F)cc4)c3)cc12 | 16.5 | 77.7 | 59.5% |  |  |  |  |  | 16.467 |  | 
13 | CCCn1cc(CC(=O)O)c2cc(OCCCOc3cccc(OCc4ccc(Cl)cc4)c3)ccc21 | 66.8 | 110 | 77.1% |  |  |  |  |  | 21.212 |  | 
14 | O=C(O)Cc1cn(Cc2ccccc2)c2ccc(OCCCOc3ccccc3OCc3ccc(Cl)cc3)cc12 | 27.1 | 89.2 | 74.9% |  |  |  |  |  | 15.313 |  | 
15 | Cc1cccc(OCCOc2ccc3c(c2)c(CC(=O)O)cn3Cc2ccccc2)c1 | 10.9 | 36.5 | 13.2% |  |  |  |  |  | 8.19 |  | 
16 | Cc1ccc(COc2ccc(OCCCOc3ccc4[nH]cc(CC(=O)O)c4c3)cc2)cc1 | 41.2 | 91.7 | 53.3% |  |  |  |  |  | 7.89 |  | 
17 | Cc1ccc(Oc2cccc(OCCCOc3ccc4[nH]cc(CC(=O)O)c4c3)c2)cc1 | 60.6 | 145 | 40.6% |  |  |  |  |  | 9.409 |  | 

The next lines start with the values.

Row | Emax [1] [%] | Emax [2] [%] | Emax [3] | EC50 [4] [µM] | EC50 [5] [nM] | EC50 [6] [µM] | Stability (Liver microsome [7]) | Stability [8] | Retention_time [9] [min] | Stability (Liver microsome [10]) | Stability [11] | Compound
18 | 37.5 | 110 | 70.8% |  |  |  |  |  | 13.52 |  |  | Cn1cc(CC(=O)O)c2cc(OCCCOc3cccc(OCc4ccc(Cl)cc4)c3)ccc21
19 | 15.5 | 16.8 | 16.2% |  |  |  |  |  | 4.608 |  |  | O=C(O)Cc1c[nH]c2ccc(OCCOc3cccc(Cl)c3)cc12
20 | 38.5 | 101 | 87.2% |  |  |  |  |  | 16.602 |  |  | Cc1ccc(COc2cccc(OCCOc3ccc4c(c3)c(CC(=O)O)cn4Cc3ccccc3)c2)cc1
21 | 34.3 | 92.7 | 133% |  |  | 0.75 |  |  | 23.205 |  |  | O=C(O)Cc1cn(Cc2ccc(F)cc2)c2ccc(OCCCOc3cccc(OCc4ccc(Cl)cc4)c3)cc12
22 | 15.3 | 23.6 | 13.7% |  |  |  |  |  | 8.911 |  |  | O=C(O)Cc1cn(Cc2ccccc2)c2ccc(OCCOc3cccc(Cl)c3)cc12
23 | 87.5 | 93.4 | 70% |  |  |  |  |  | 5.651 |  |  | COc1ccc(COc2cccc(OCCOc3ccc4[nH]cc(CC(=O)O)c4c3)c2)cc1
24 | 26.5 | 130 | 90.2% | 19.2 | 1300 | 9.4 | Stable | Stable | 18.125 | Stable | Stable | Cc1ccc(COc2cccc(OCCCOc3ccc4c(CC(=O)O)cn(Cc5ccccc5)c4c3)c2)cc1
25 | 61.1 | 119 | 43.2% |  |  |  |  |  | 9.685 |  |  | O=C(O)Cc1c[nH]c2ccc(OCCCOc3cccc(Oc4ccc(C(F)(F)F)cc4)c3)cc12
26 | 43 | 103 | 83% |  |  |  |  |  | 7.193 |  |  | O=C(O)Cc1c[nH]c2ccc(OCCOc3cccc(OCc4ccc(C(F)(F)F)cc4)c3)cc12
27 | 10.9 | 19.2 | 64.6% |  |  |  |  |  | 7.422 |  |  | Cc1ccc(COc2ccccc2OCCCOc2ccc3c(CC(=O)O)c[nH]c3c2)cc1
28 | 23.4 | 84.3 | 37.2% |  |  |  |  |  | 9.005 |  |  | Cc1ccc(COc2cccc(OCCCOc3ccc4c(CC(=O)O)c[nH]c4c3)c2)cc1
29 | 12.2 | 77.9 | 87.4% |  |  |  |  |  | 24.08 |  |  | O=C(O)Cc1cn(Cc2ccccc2)c2ccc(OCCCOc3cccc(OCc4ccc(C(F)(F)F)cc4)c3)cc12
30 | 23.4 | 85.7 | 73.9% |  |  |  |  |  | 18.375 |  |  | O=C(O)Cc1cn(Cc2ccccc2)c2ccc(OCCOc3cccc(OCc4ccc(C(F)(F)F)cc4)c3)cc12
